This data set is described as follows: determination of the log P values by HPLC on a reverse phase column (C18), EEC-Directive 79/831 Annex V.A8. The class given is physicochemical. The protocol:
Method A Note on the determination of the log P values and mass detection: The stated log P values were determined in accordance with EEC-Directive 79/831 Annex V.A8 by HPLC (High Performance Liquid Chromatography) on a reverse phase column (C18). […] The mass detection was effected with an […] system. Method B Note on the determination of the log P values and mass detection: The stated log P values were determined in accordance with EEC-Directive 79/831 Annex V.A8 by HPLC (High Performance Liquid Chromatography) on a reverse phase column (C18). […] The mass detection was effected with the Micronass ZQ2000 mass detector from Waters. Method C Note on the determination of the log P values and mass detection: The stated log P values were determined in accordance with EEC-Directive 79/831 Annex V.A8 by UPLC (Ultra Performance Liquid Chromatography) on a reverse phase column (C18). […] The mass detection was effected with the LCT Premier or SQD mass detector from Waters.

Like-named read-outs stand apart in the source and are kept apart here.

For `O=C(C1CC1)N(C(=O)C1CC1)c1cc(-c2c(-c3ccc(F)cc3)nn3c2CCCC3)ccn1` [Example 14, N-(cyclopropylcarbonyl)-N-{4-[2-(4-fluorophenyl)-4,5,6,7-tetrahydropyrazolo[1,5-a]pyridin-3-yl]pyridin-2-yl}cyclopropanecarboxamide], where the note is “Method A (HPLC, C18, acetonitrile/water with formic acid), compounds of the type [I]”, the LogPA was 3.28. Further, the chromatographic logP (pH 2.7) turned out to be 3.28. Turning to `COC(=O)N(C(=O)C1CC1)c1cc(-c2c(-c3ccc(F)cc3)nn3c2CCC3)ccn1` [Example 15, methyl (cyclopropylcarbonyl){4-[2-(4-fluorophenyl)-5,6-dihydro-4H-pyrrolo[1,2-b]pyrazol-3-yl]pyridin-2-yl}carbamate], the chromatographic logP was determined as 2.54. For the compound `CCC(=O)Nc1cc(-c2c(-c3ccc(F)cc3)nn3c2C(OC)CC3)ccn1` (stereo not shown) [[XI-19], N-{4-[2-(4-fluorophenyl)-4-methoxy-5,6-dihydro-4H-pyrrolo[1,2-b]pyrazol-3-yl]pyridin-2-yl}propanamide], the chromatographic logP (pH 2.3) worked out at 1.72. In the case of `O=C(CCc1ccccc1)Nc1cc(-c2c(-c3ccc(F)cc3)nn3c2CCC3)ccn1` [[XI-28], N-{4-[2-(4-fluorophenyl)-5,6-dihydro-4H-pyrrolo[1,2-b]pyrazol-3-yl]pyridin-2-yl}-3-phenylpropanamide], the chromatographic logP (pH 2.3) was 2.62. For `CCC(=O)N(C(=O)CC)c1cc(-c2c(-c3ccc(F)cc3)nn3c2CCCC3)ccn1` [Example 18, N-{4-[2-(4-fluorophenyl)-4,5,6,7-tetrahydropyrazolo[1,5-a]pyridin-3-yl]pyridin-2-yl}-N-propionylpropanamide], the chromatographic logP was 3.18.

`CC(=O)Nc1cc(-c2c(-c3ccccc3)nn3c2C(C)CC3)ccn1` (stereo not shown) [[XI-1], N-[4-(4-methyl-2-phenyl-5,6-dihydro-4H-pyrrolo[1,2-b]pyrazol-3-yl)pyridin-2-yl]acetamide]: the chromatographic logP was 1.6 (pH 2.3) and 1.76 (pH 2.7). `Fc1ccc(-c2nn3c(c2Br)CCC3)cc1F` [[IV-2], 3-bromo-2-(3,4-difluorophenyl)-5,6-dihydro-4H-pyrrolo[1,2-b]pyrazole]: the chromatographic logP was 3.54 (pH 2.3) and 3.54 (pH 2.5). In turn, `O=C(Nc1cc(-c2c(-c3ccc(F)cc3)nn3c2CCC3)ccn1)C1CCOC1` (stereo not shown) [[XI-24], N-{4-[2-(4-fluorophenyl)-5,6-dihydro-4H-pyrrolo[1,2-b]pyrazol-3-yl]pyridin-2-yl}tetrahydrofuran-3-carboxamide] came in with a chromatographic logP (pH 2.3) of 1.69. Turning to “3-iodo-5-methyl-2-phenyl-5,6-dihydro-4H-pyrrolo[1,2-b]pyrazole [[IV-7]]”, under “pH 2.3, compounds of the type [IV]”, the “LogP (pH 2.3)” value was found to be 3.74. The “log P (pH 2.5)” value (pH 2.5, preparation examples in the text) is 3.74.

`CCC(=O)N(C(=O)C1CC1)c1cc(-c2c(-c3ccc(F)cc3)nn3c2CCCC3)ccn1` [Example 17, N-{4-[2-(4-fluorophenyl)-4,5,6,7-tetrahydropyrazolo[1,5-a]pyridin-3-yl]pyridin-2-yl}-N-propionylcyclopropanecarboxamide] gave a chromatographic logP of 3.22. In the case of `CC1Cc2c(-c3ccnc(NC(=O)CC4CC4)c3)c(-c3ccc(F)cc3)nn2C1` (stereo not shown) [[XI-22], 2-cyclopropyl-N-{4-[2-(4-fluorophenyl)-5-methyl-5,6-dihydro-4H-pyrrolo[1,2-b]pyrazol-3-yl]pyridin-2-yl}acetamide], the chromatographic logP (pH 2.3) came out at 2.36. As to `CC(C)CC(=O)Nc1cc(-c2c(-c3ccc(F)cc3)nn3c2CCC3)ccn1` [[XI-15], N-{4-[2-(4-fluorophenyl)-5,6-dihydro-4H-pyrrolo[1,2-b]pyrazol-3-yl]pyridin-2-yl}-3-methylbutanamide], the chromatographic logP (pH 2.3) came to 2.2. Regarding `OCCCCc1cc(-c2ccc(F)cc2)n[nH]1` [[XIV-4], 4-[3-(4-fluorophenyl)-1H-pyrazol-5-yl]butan-1-ol], the chromatographic logP by setting is: (pH 2.3) 1.72; (pH 2.7) 1.72. The compound `O=C(Nc1cc(-c2c(-c3csc(Cl)c3)nn3c2CCC3)ccn1)C1CC1` [[XI-20], N-{4-[2-(5-chloro-3-thienyl)-5,6-dihydro-4H-pyrrolo[1,2-b]pyrazol-3-yl]pyridin-2-yl}cyclopropanecarboxamide] displayed a chromatographic logP (pH 2.3) of 2.02.

Where the note is “pH 2.3”, `CCC1CCc2c(-c3ccnc(NC(C)=O)c3)c(-c3ccc(F)cc3)nn21` (stereo not shown) [[XI-6], N-{4-[6-ethyl-2-(4-fluorophenyl)-5,6-dihydro-4H-pyrrolo[1,2-b]pyrazol-3-yl]pyridin-2-yl}acetamide] returned a chromatographic logP of 1.96.

The compound `O=C(CC1CC1)Nc1cc(-c2c(-c3csc(Cl)c3)nn3c2CCC3)ccn1` [[XI-25], N-{4-[2-(5-chloro-3-thienyl)-5,6-dihydro-4H-pyrrolo[1,2-b]pyrazol-3-yl]pyridin-2-yl}-2-cyclopropylacetamide] showed a chromatographic logP (pH 2.3) of 2.4.

Turning to `CC1CCc2c(I)c(-c3ccc(F)cc3)nn21` (stereo not shown) [[IV-5], 2-(4-fluorophenyl)-3-iodo-6-methyl-5,6-dihydro-4H-pyrrolo[1,2-b]pyrazole], the chromatographic logP is, setting by setting: (pH 2.3) 3.78; (pH 2.5) 3.78.

`CCC(C)C(=O)Nc1cc(-c2c(-c3ccc(F)cc3)nn3c2CCC3)ccn1` (stereo not shown) [[XI-17], N-{4-[2-(4-fluorophenyl)-5,6-dihydro-4H-pyrrolo[1,2-b]pyrazol-3-yl]pyridin-2-yl}-2-methylbutanamide] displayed a chromatographic logP (pH 2.3) of 2.23. `CS(=O)(=O)OCCCc1cc(-c2ccc(F)cc2)n[nH]1` [[VII-1], 3-[3-(4-fluorophenyl)-1H-pyrazol-5-yl]propyl methanesulfonate]: the chromatographic logP (pH 2.7) was 2. `Clc1cc(-c2nn3c(c2I)CCCC3)cs1` [[IV-6], 2-(5-chloro-3-thienyl)-3-iodo-4,5,6,7-tetrahydropyrazolo[1,5-a]pyridine] gave a chromatographic logP (pH 2.3) of 4.49 and a chromatographic logP (pH 2.5) of 4.49. On to `O=C(CCCCO)CC(=O)c1ccc(F)cc1` [[XIII-4], 1-(4-fluorophenyl)-7-hydroxyheptane-1,3-dione], for which the chromatographic logP (pH 2.7) worked out at 2.3. In the case of `Fc1ccc(-c2nn3c(c2Br)CCC3)cc1` [[IV-1], 3-bromo-2-(4-fluorophenyl)-5,6-dihydro-4H-pyrrolo[1,2-b]pyrazole], the chromatographic logP is 3.21 (pH 2.3) and 3.21 (pH 7). As to `Fc1ccc(-c2cc3n(n2)CCC3)cc1F` [[VI-2], 2-(3,4-difluorophenyl)-5,6-dihydro-4H-pyrrolo[1,2-b]pyrazole], the chromatographic logP reads like this: (pH 2.3) 2.69; (pH 2.7) 2.69. On to `Fc1ccc(-c2nn3c(c2Br)CCC3)cc1Cl` [[IV-3], 3-bromo-2-(3-chloro-4-fluorophenyl)-5,6-dihydro-4H-pyrrolo[1,2-b]pyrazole], for which the chromatographic logP amounted to 4.01 (pH 2.3) and 4.01 (pH 2.5). In the case of `COCC(=O)Nc1cc(-c2c(-c3ccc(F)cc3)nn3c2CC(C)C3)ccn1` (stereo not shown) [[XI-18], N-{4-[2-(4-fluorophenyl)-5-methyl-5,6-dihydro-4H-pyrrolo[1,2-b]pyrazol-3-yl]pyridin-2-yl}-2-methoxyacetamide], where the note is “pH 2.3”, the chromatographic logP worked out at 2.3. The same measure, in the same setting: under `CC1OCCc2c(-c3ccnc(NC(=O)C4CC4)c3)c(-c3ccc(F)cc3)nn21` (stereo not shown) [[XI-23], N-{4-[2-(4-fluorophenyl)-7-methyl-4,5-dihydropyrazolo[1,5-c][1,3]oxazin-3-yl]pyridin-2-yl}cyclopropanecarboxamide] stands 2.33. As for `CC1(C)OB(c2c(-c3ccc(F)c(F)c3)nn3c2CCC3)OC1(C)C` [[III-2], 2-(3,4-difluorophenyl)-3-(4,4,5,5-tetramethyl-1,3,2-dioxaborolan-2-yl)-5,6-dihydro-4H-pyrrolo[1,2-b]pyrazole], the chromatographic logP (pH 2.7) worked out at 4.3. `CCC(=O)N(C(=O)CC)c1cc(-c2c(-c3ccc(F)cc3)nn3c2CCC3C)ccn1` (stereo not shown) [Example 16, N-{4-[2-(4-fluorophenyl)-6-methyl-5,6-dihydro-4H-pyrrolo[1,2-b]pyrazol-3-yl]pyridin-2-yl}-N-propionylpropanamide]: the chromatographic logP worked out at 3.21. Turning to `CCC(=O)Nc1cc(-c2c(-c3ccc(F)c(F)c3)nn3c2CCC3)ccn1` [[XI-10], N-{4-[2-(3,4-difluorophenyl)-5,6-dihydro-4H-pyrrolo[1,2-b]pyrazol-3-yl]pyridin-2-yl}propanamide], the chromatographic logP (pH 2.3) stood at 1.93. As to `Fc1ccc(-c2cc3n(n2)CCC3)cc1` [[VI-1], 2-(4-fluorophenyl)-5,6-dihydro-4H-pyrrolo[1,2-b]pyrazole], the chromatographic logP by setting is: (pH 2.3) 2.39; (pH 2.7) 2.39.

Consider `CCC(=O)Nc1cc(-c2c(-c3csc(Cl)c3)nn3c2CCC3)ccn1` [[XI-12], N-{4-[2-(5-chloro-3-thienyl)-5,6-dihydro-4H-pyrrolo[1,2-b]pyrazol-3-yl]pyridin-2-yl}propanamide], for which the chromatographic logP (pH 2.3) is 1.95. As to `O=C(Nc1cc(-c2c(-c3ccc(F)cc3)nn3c2CCC3)ccn1)C1CCC1` [[XI-14], N-{4-[2-(4-fluorophenyl)-5,6-dihydro-4H-pyrrolo[1,2-b]pyrazol-3-yl]pyridin-2-yl}cyclobutanecarboxamide], the chromatographic logP (pH 2.3) worked out at 2.08. In the case of `OCCCc1cc(-c2ccc(F)c(F)c2)n[nH]1` [[XIV-2], 3-[3-(3,4-difluorophenyl)-1H-pyrazol-5-yl]propan-1-ol], the chromatographic logP was determined as 1.73 (pH 2.3) and 1.73 (pH 2.7). For the compound `CS(=O)(=O)OCCCc1cc(-c2ccc(F)c(Cl)c2)n[nH]1` [[VII-2], 3-[3-(3-chloro-4-fluorophenyl)-1H-pyrazol-5-yl]propyl methanesulfonate], the chromatographic logP (pH 2.7) was determined as 2.42.

The chromatographic logP is lipophilicity estimated from chromatographic retention. A lower chromatographic logP goes with a more hydrophilic compound.

The values above are taken from patent US9314026B2, “Heterocyclylpyri(mi)dinylpyrazole” (Bayer Intellectual Property GmbH, priority 2011, dated 2016).
